Tested on: beta-TC6 cells
Experiment: Insulin HTRF assay, relative activity Ar normalized to sunitinib
Format: cell-based
Conditions: Mus musculus, normalized to positive control sunitinib (5 µM = 100%), Table 10
Text: For further screening of compounds derived from compounds described above for their ability to regulate insulin release an insulin HTRF® (Homogeneous Time-Resolved Fluorescence; Cisbio International, France) was used. This assay is based on two antibodies against insulin binding to different epitopes of insulin. One of these antibodies is coupled to Europium (Ab-Eu-Cryptate) and the other one to the fluorophore XL665 (Ab-XL665). Is insulin secreted into the supernatant of cell culture both antibodies can bind to insulin and come therefore into close proximity which allows upon excitation that energy transfer between (FRET) the long-life fluorescent donor Europium (cryptate) and the acceptors XL665. FRET increases proportionally with insulin concentration.
The automated assay protocol is as follows: • On day 1 15k beta-TC6 cells per well were seeded for 24 or 48 h in 50 µl complete medium. On day 2 or respective on day 3 the medium is removed and cells are washed with 60 µl 1xPBS and 20 µl induction buffer is added using BioTek washer. Subsequently, 10 µl Sunitininb (5 µM f.c.) or the test compound in induction buffer; 0.5% f.c. DMSO (CyBi-well) is transferred to the cells. The cells are then incubated at 37°C for 2, 3, 4h.
The HTRF assay is carried out using Greiner 384-well 784075 assay plates. First 10 µl supernatant is transferred from the cell plates in HTRF plates (CyBi-well). 10 µl of 0, 1, 2, and 4 ng/ml Insulin standard controls in assay medium is used as a control. To each well 10 µl of combined 1:25 Ab-XL665 (Acc) and 1:20 Ab-Eu-Cryptate (WellMate) are added and incubated for 120 min at RT in the dark. Finally HTRF is measured on ViewLux ultra high throughput microplate imager (PerkinElmer).
The evaluation software DataFactoty derives relative activities Ar according to the following equation: Ar = (V-R(0%control))/(R(100%control) -R(0%control)) × 100 [formula] […]
The activity of the compounds was classified according to their Ar (relative activity) into the following ranges: Ar ≥ 100% + + + +; 50% ≤ Ar < 100% + + +; 20% ≤ Ar < 50% + +; 10% < Ar < 20% + [formula] Table 10. Ar (relative activity) values of inventive compounds

Compound	Emax [%]
CC(C)[C@@H](CO)Nc1ccc2ncc(-c3ccc(N)cc3)n2n1 [compound 5, (2S)-2-[[3-(4-aminophenyl)imidazo[1,2-b]pyridazin-6-yl]amino]-3-methyl-butan-1-ol]	50 to 100
COc1ccc(-c2cnc3ccc(NCc4cccs4)nn23)c(OC)c1 [compound 6, 3-(2,4-dimethoxyphenyl)-N-(2-thienylmethyl)imidazo[1,2-b]pyridazin-6-amine]	20 to 50
COCCNc1ccc2ncc(-c3ccc(C(=O)Nc4ccc(OC)cc4)cc3)n2n1 [compound 7, 4-[6-(2-methoxyethylamino)imidazo[1,2-b]pyridazin-3-yl]-N-(4-methoxyphenyl)benzamide]	20 to 50
CCC(CO)Nc1ccc2ncc(-c3ccccc3Cl)n2n1 (centres unmarked) [compound 9, 2-[[3-(2-chlorophenyl)imidazo[1,2-b]pyridazin-6-yl]amino]butan-1-ol]	10 to 20
COc1cc(-c2cnc3ccc(NCc4cccc(Cl)c4)nn23)ccc1O [compound 16, 4-[6-[(3-chlorophenyl)methylamino]imidazo[1,2-b]pyridazin-3-yl]-2-methoxy-phenol]	20 to 50
CC(=O)Nc1cccc(-c2cnc3ccc(NCc4ccc(F)cc4)nn23)c1 [compound 19, N-[3-[6-[(4-fluorophenyl)methylamino]imidazo[1,2-b]pyridazin-3-yl]phenyl]acetamide]	10 to 20
CCCNc1ccc2ncc(-c3ccc(C(=O)O)cc3)n2n1 [compound 20, 4-[6-(propylamino)imidazo[1,2-b]pyridazin-3-yl]benzoic acid]	10 to 20
CCCNc1ccc2ncc(-c3cccc(/C=C/C(=O)O)c3)n2n1 [compound 21, (E)-3-[3-[6-(propylamino)imidazo[1,2-b]pyridazin-3-yl]phenyl]prop-2-enoic acid]	10 to 20
c1cncc(CCNc2ccc3ncc(-c4ccc(N5CCOCC5)cc4)n3n2)c1 [compound 24, 3-(4-morpholinophenyl)-N-[2-(3-pyridyl)ethyl]imidazo[1,2-b]pyridazin-6-amine]	50 to 100
c1cncc(CCNc2ccc3ncc(-c4ccc5ccccc5c4)n3n2)c1 [compound 25, 3-(2-naphthyl)-N-[2-(3-pyridyl)ethyl]imidazo[1,2-b]pyridazin-6-amine]	10 to 20
c1cc2c(cc1CNc1ccc3ncc(-c4ccc(N5CCOCC5)cc4)n3n1)OCO2 [compound 26, N-(1,3-benzodioxol-5-ylmethyl)-3-(4-morpholinophenyl)imidazo[1,2-b]pyridazin-6-amine]	20 to 50
OC1CCC(Nc2ccc3ncc(Br)n3n2)CC1 (centres unmarked) [compound 32, 4-[(3-bromoimidazo[1,2-b]pyridazin-6-yl)amino]cyclohexanol]	10 to 20
Nc1cccc(-c2cnc3ccc(NC4CCOCC4)nn23)c1 [compound 33, 3-(3-aminophenyl)-N-tetrahydropyran-4-yl-imidazo[1,2-b]pyridazin-6-amine]	20 to 50
COc1ccc(CNc2ccc3ncc(-c4ccc(O)cc4)n3n2)cc1 [compound 36, 4-[6-[(4-methoxyphenyl)methylamino]imidazo[1,2-b]pyridazin-3-yl]phenol]	20 to 50
COc1ccc(CNc2ccc3ncc(-c4ccc5[nH]ccc5c4)n3n2)cc1 [compound 37, 3-(1H-indol-5-yl)-N-[(4-methoxyphenyl)methyl]imidazo[1,2-b]pyridazin-6-amine]	20 to 50
COc1ccc(CNc2ccc3ncc(-c4ccc(OC)cc4OC)n3n2)cc1 [compound 39, 3-(2,4-dimethoxyphenyl)-N-[(4-methoxyphenyl)methyl]imidazo[1,2-b]pyridazin-6-amine]	10 to 20
COc1ccc(-c2cnc3ccc(NCCCO)nn23)cc1 [compound 41, 3-[[3-(4-methoxyphenyl)imidazo[1,2-b]pyridazin-6-yl]amino]propan-1-ol]	10 to 20
COc1ccc(-c2cnc3ccc(NCCCO)nn23)c(OC)c1 [compound 42, 3-[[3-(2,4-dimethoxyphenyl)imidazo[1,2-b]pyridazin-6-yl]amino]propan-1-ol]	10 to 20

Compound	Emax [%]
Brc1cnc2ccc(NCCCN3CCOCC3)nn12 [compound 44, 3-bromo-N-(3-morpholinopropyl)imidazo[1,2-b]pyridazin-6-amine]	10 to 20
COc1ccc(-c2cnc3ccc(N[C@H](CO)C(C)C)nn23)c(OC)c1 [compound 46, (2S)-2-[[3-(2,4-dimethoxyphenyl)imidazo[1,2-b]pyridazin-6-yl]amino]-3-methyl-butan-1-ol]	20 to 50
COc1ccc(-c2cnc3ccc(NCc4ccccn4)nn23)cc1OC [compound 47, 3-(3,4-dimethoxyphenyl)-N-(2-pyridylmethyl)imidazo[1,2-b]pyridazin-6-amine]	20 to 50
COc1cc(CNc2ccc3ncc(-c4ccc(N(C)C)cc4)n3n2)cc(OC)c1OC [compound 49, 3-(4-dimethylaminophenyl)-N-[(3,4,5-trimethoxyphenyl)methyl]imidazo[1,2-b]pyridazin-6-amine]	10 to 20
COc1ccc(-c2cnc3ccc(NCC4CC4)nn23)cn1 [compound 51, N-(cyclopropylmethyl)-3-(6-methoxy-3-pyridyl)imidazo[1,2-b]pyridazin-6-amine]	10 to 20
Cc1ccc(CNc2ccc3ncc(-c4ccc(O)cc4)n3n2)c(C)c1 [compound 52, 4-[6-[(2,4-dimethylphenyl)methylamino]imidazo[1,2-b]pyridazin-3-yl]phenol]	20 to 50
Cc1ccc(CNc2ccc3ncc(-c4ccc(C(=O)NCCN(C)C)cc4)n3n2)c(C)c1 [compound 54, N-(2-dimethylaminoethyl)-4-[6-[(2,4-dimethylphenyl)methylamino]imidazo[1,2-b]pyridazin-3-yl]benzamide]	20 to 50
CNc1ccc2ncc(/C=C\CCCO)n2n1 [compound 59, (Z)-5-[6-(methylamino)imidazo[1,2-b]pyridazin-3-yl]pent-4-en-1-ol]	10 to 20
CNc1ccc2ncc(-c3ccccc3O)n2n1 [compound 60, 2-[6-(methylamino)imidazo[1,2-b]pyridazin-3-yl]phenol]	20 to 50
CNc1ccc2ncc(-c3cccc(C(=O)N(C)C)c3)n2n1 [compound 61, N,N-dimethyl-3-[6-(methylamino)imidazo[1,2-b]pyridazin-3-yl]benzamide]	20 to 50
CN1CCN(c2ccc(-c3cnc4cccnn34)cn2)CC1 [compound 69, 3-[6-(4-methylpiperazin-1-yl)-3-pyridyl]imidazo[1,2-b]pyridazine]	10 to 20
CSc1ccc(-c2cnc3cccnn23)cc1 [compound 72, 3-(4-methylsulfanylphenyl)imidazo[1,2-b]pyridazine]	10 to 20
C(=C\c1cnc2cccnn12)/c1ccccc1 [compound 74, 3-[(E)-styryl]imidazo[1,2-b]pyridazine]	20 to 50
CCOc1cccc(-c2cnc3cccnn23)c1 [compound 76, 3-(3-ethoxyphenyl)imidazo[1,2-b]pyridazine]	10 to 20
Cc1cc(-c2cnc3cccnn23)cc(C)c1O [compound 77, 4-imidazo[1,2-b]pyridazin-3-yl-2,6-dimethyl-phenol]	10 to 20
O=C(NCCO)c1ccc(-c2cnc3cccnn23)cc1 [compound 78, N-(2-hydroxyethyl)-4-imidazo[1,2-b]pyridazin-3-yl-benzamide]	10 to 20
c1cnn2c(-c3ccc4c(c3)CCO4)cnc2c1 [compound 80, 3-(2,3-dihydrobenzofuran-5-yl)imidazo[1,2-b]pyridazine]	10 to 20

Source: patent EP2818471A1, “Nitrogen bicyclic compounds as inhibitors for Scyl1 and Grk5” (Max-Planck-Gesellschaft zur Förderung der Wissenschaften …, priority 2013, dated 2014)
